These results are taken from US12723233B2, “Media and methods for differentiating natural killer cells” (STEMCELL Technologies Canada Inc., priority 2018, dated 2026).

Entries after “also recorded” stand apart in the source; their conditions may differ.

The test system of assay [1] is differentiated CD56+ NK cells. Put plainly: Flow cytometry of NK cell, maturity and T cell markers on differentiated CD56+ NK cells at day 28. The class given is cell-based, Human. The method, then: CD56^+ NK cells were differentiated as described in Examples 1 and 2 in the presence of 1 μM UM729 and analyzed on day 28 by flow cytometry for the expression of known NK cell markers. Cells were stained with fluorescence-conjugated antibodies against indicated NK cell markers for 15 min at 4° C. Non-specific binding was blocked using FcR blocker and 5% human or rat serum. Dead cells were excluded by light scatter profile and 7-AAD or DRAQ7 staining. Prepared samples were analyzed by flow cytometry.
CD56^+ NK cells were differentiated as described in Examples 1 and 2 in the presence of 1 μM UM729 and analyzed on day 28 by flow cytometry for the expression of known NK cell markers. The cells were stained for the markers described in this Example essentially as described in Example 3. Staining for KIR molecules was performed using a combination of two clones for the antibody, 180704 and HP-MA4, as each recognizes a distinct subset of KIR molecules. Dead cells were excluded by light scatter profile and 7-AAD or DRAQ7 staining.
Production of IFNγ by the differentiated CD56^+ NK cells was also measured. For IFNγ intracellular staining, differentiated CD56^+ NK Cells were stimulated with PMA/Ionomycin for 2 hours. Brefeldin A was added and the cells were incubated for another 2 hours. The cells were harvested and stained for CD56 and Zombie NIR viability dye then fixed, permeabilized and stained for intracellular IFNγ.
CD56^+ NK cells were differentiated as described in Examples 1 and 2 in the presence of pyrimidoindole compounds and analyzed on day 28 by flow cytometry for the expression of a T cell marker. The analyzed cells were stained for CD3 essentially as described in Example 3. Dead cells were excluded by light scatter profile and 7-AAD or DRAQ7 staining.
On the technique in general: Flow cytometry measures light scatter and fluorescence of single cells or particles in a stream.

Another assay deals with NK cell progenitors. Put plainly: Differentiation of cord blood CD34+-derived NK cell progenitors to CD56+ NK cells (culture days 14-28), flow cytometry and cell counts. The class given is cell-based, Human. The method, then: Human CB samples were obtained from Bloodworks NW (Seattle, WA) and CD34^+ cells were isolated using EasySep™ Human Cord Blood CD34 Positive Selection Kit II (STEMCELL Technologies, Catalogue #17896). Obtained in this way the purity of CD34^+ cells is typically higher than 90%.
The wells of a 24-well plate were coated with StemSpan™ Lymphoid Differentiation Coating Supplement (STEMCELL Technologies, Catalogue #09925) and 5000 CD34^+ cells were plated per well. The CD34^+ cells were cultured for up to 14 days in StemSpan™ SFEM II (STEMCELL Technologies, Catalogue #09605, 09655) supplemented with Lymphoid Progenitor Expansion Supplement (STEMCELL Technologies, Catalogue #09915) with media changes every 3-4 days.
After 14 days in culture, CD34^+ cell-derived NK cell progenitors were harvested. 50,000 NK cell progenitors were plated per well of an uncoated tissue culture 24-well plate. The plated NK cell progenitors were cultured for up to two weeks in NK Cell Differentiation medium (i.e StemSpan™ SFEM II (STEMCELL Technologies, Catalog # 09605, 09655) supplemented with NK Cell Differentiation Supplement (STEMCELL Technologies, Catalogue #09950), and cultured for an additional two weeks with media changes every 3-4 days. UM729 or UM171 was added to supplemented NK Cell Differentiation Medium on days 14-28. On day 28 cells were harvested for analysis or downstream applications.
Harvested cells were stained and measured by flow cytometry for expression of the NK cell lineage marker CD56. Dead cells were excluded by light scatter profile and 7-AAD or DRAQ7 staining. The results in FIGS. 1 and 2 at condition “0” (plotted on the x-axis) indicate the frequency and yield of CD56^+ NK cells that result from experiments that follows the protocol described above but in the absence of UM171 or UM729. Cell counts were obtained using the NucleoCounter NC250. Yield was calculated by dividing the resulting cell number by the number of cells initially seeded. Yields of specific cell types were obtained by multiplying total yield by cell frequency.
Cells were cultured as described in Example 1, with the exception that the up to two week culture of NK cell progenitors (i.e. culture days 14-28) in NK Cell Differentiation medium occurred in the presence or absence of UM171 or UM729.
The effects of UM171 and UM729 were tested across a range of concentrations: 0 nM, 50 nM, 100 nM, 150 nM and 200 nM for UM171; and 0 μM, 0.25 μM, 0.5 μM, 1 μM, and 2 μM for UM729.
CD34^+ CB cells were isolated and cultured as described in Example 1 up to the day 14 time point. Day 14 NK cell progenitors were further cultured in NK Cell Differentiation medium, essentially as described in Example 1, except in the absence of an added pyrimidoindole compound but in the presence or absence of 5 μM CH223191.

[2] abbreviates: cells differentiated in the presence of 1 μM UM729, day 28.
The mark [3] stands for this setting: 1 μM UM729, normalized to STD cultures, n=20.
Where [4] appears, read: tested 0, 0.25, 0.5, 1, 2 μM, days 14-28.

As to `COC(=O)c1ccc2c(c1)[nH]c1ncnc(NCCCN3CCCCC3)c12` [UM729, methyl 4-((3-(piperidin-1-yl)propyl)amino)-9H-pyrimido[4,5-b]indole-7-carboxylate], in assay [1] (setting [2]), the “Analyzed cells co-expressing CD56 and CD16” value is listed as “approximately 17%”; the “Analyzed cells co-expressing CD56 and CD94” value is recorded as “approximately 18%”; the “Analyzed cells co-expressing CD56 and KIR” value is listed as “approximately 10%”; the “Analyzed cells co-expressing CD56 and NKG2D” value is recorded as “approximately 50%”. Further, in assay [1] (setting [2]), the “Analyzed cells co-expressing CD56 and NKp30” value is on record as “approximately 80%”; the “Analyzed cells co-expressing CD56 and NKp44” value is “approximately 80%”; the “Analyzed cells co-expressing CD56 and NKp46” value is on record as “approximately 70%”. For the same molecule, the “Differentiated CD56+ NK cells expressing intracellular IFNγ upon stimulation” value in assay [1] (cells differentiated in the presence of 1 μM UM729, PMA/Ionomycin 2 hours, then Brefeldin A 2 hours) is given as “approximately 58%”. Further, the “Expression of CD3 among differentiated cells” value in assay [1] (cord blood sample of a second donor, 1 μM UM729, day 28) is recorded as “virtually absent; also recorded: do not express CD3”. Further, the “Frequency of CD56+ NK cells compared to cultures lacking UM729” value with NK cell progenitors (1 μM UM729, 14 days culture of NK cell progenitors, paired t-test p=0.017) is recorded as “increased significantly”. The “Yield of CD56+ NK cells per input cell compared to cultures lacking UM729” value with NK cell progenitors (1 μM UM729, 14 days culture of NK cell progenitors, paired t-test p=0.032) is “increased significantly”. Also, in the assay with NK cell progenitors (setting [3]), the “Increase of average frequency of NK cells compared to culture conditions not including a pyrimidoindole compound” value is ~ 30% and the “Increase of average yield of NK cells compared to culture conditions not including a pyrimidoindole compound” value was 2 fold. Moreover, in the assay on NK cell progenitors (setting [4]), the “Concentration at which frequency of CD56+ NK cells appeared to be highest” value stood at 1 µM and the “Concentration at which yield of CD56+ NK cells appeared to be highest” value was found to be 1 µM.
